Data taken from publication PMC10287695, “Non-covalent inhibitors of thioredoxin glutathione reductase with schistosomicidal activity in vivo” (Nature Communications, 2023).
“And” between values parts separate entries of the source, which are not always exact repeats. Identical values can stand only once. Like-named read-outs stand apart in the source and are kept apart here. Marks after values point to notes of the source that are not given here.

Tests used:
S. mansoni TGR = target: T1, S. mansoni TGR (Schistosoma mansoni, UniProt Q962Y6); assay: S. mansoni TGR enzyme inhibition (DTNB reduction); assay type: biochemical; conditions: for % inhibition: TGR; for S. mansoni TGR IC50: 15 min preincubation (enzyme + 100 µM NADPH + compound); for inhibition at 15 µM / inhibition at 30 µM / inhibition at 66.7 µM: read-out: TGR % inhibition; for S. mansoni TGR inhibition (%) at 66.7 µM: 6 h preincubation (enzyme + 100 µM NADPH + compound)
T1 construct: made in house
T1 sequence (Q962Y6 1-598): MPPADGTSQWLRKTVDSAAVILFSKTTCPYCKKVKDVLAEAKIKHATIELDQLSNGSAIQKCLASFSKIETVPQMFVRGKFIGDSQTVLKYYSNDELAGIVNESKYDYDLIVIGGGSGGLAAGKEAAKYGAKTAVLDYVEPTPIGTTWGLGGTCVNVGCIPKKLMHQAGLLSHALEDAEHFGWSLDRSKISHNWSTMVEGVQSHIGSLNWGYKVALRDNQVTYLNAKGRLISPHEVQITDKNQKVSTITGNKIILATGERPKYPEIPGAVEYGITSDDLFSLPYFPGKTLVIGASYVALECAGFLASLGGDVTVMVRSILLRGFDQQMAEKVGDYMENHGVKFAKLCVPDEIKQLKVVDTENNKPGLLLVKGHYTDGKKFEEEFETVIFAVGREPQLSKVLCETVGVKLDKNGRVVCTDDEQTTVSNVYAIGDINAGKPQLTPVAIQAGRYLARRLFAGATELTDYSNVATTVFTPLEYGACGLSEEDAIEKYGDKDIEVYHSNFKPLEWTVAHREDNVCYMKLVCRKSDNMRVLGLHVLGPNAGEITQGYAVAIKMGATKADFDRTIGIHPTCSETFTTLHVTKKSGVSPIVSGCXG
Experimental: (§1) Recombinant TGR, human TrxR1, B. malayi (Bm)TrxR and human GR proteins were expressed and purified as described[20],[69],[79]. The codon optimized sequence for P. falciparum (PfTrxR, https://www.ncbi.nlm.nih.gov/protein/CAA60574.1/) with an N-terminal 6-His tag was synthesized and inserted into pET15b (GenScript) and expressed in BL21 (DE3) cells and purified as described for human GR[20]. TGR and TrxR enzyme inhibition assays were performed in triplicate at 25 °C as described[20] in 0.1 M potassium phosphate (pH 7.4), 10 mM EDTA, 100 µM NADPH and 0.01% Tween-20. […] The reaction was started with addition of an equal volume of DTNB (6 mM) and NADPH (100 µM) and the increase in A412 during the first 3 min was recorded. […] The reaction was preincubated for 15 min. Activity was initiated with the addition of 1 mM GSSG and 100 μM NADPH and initial rates of NADPH oxidation were monitored at 340 nm. The reactions were done in triplicate. The IC50 was calculated in GraphPad Prism.

Human TrxR1 = target: T2, Human TrxR1 (Homo sapiens, UniProt Q16881); assay: Human TrxR1 enzyme inhibition (DTNB reduction); assay type: biochemical; conditions: for % inhibition: hsTrxR; for % inhibition / hsTrxR % inhibition: 15 minutes pre-incubation
T2 construct: made in house
T2 sequence (Q16881 1-499 isoform Q16881-5): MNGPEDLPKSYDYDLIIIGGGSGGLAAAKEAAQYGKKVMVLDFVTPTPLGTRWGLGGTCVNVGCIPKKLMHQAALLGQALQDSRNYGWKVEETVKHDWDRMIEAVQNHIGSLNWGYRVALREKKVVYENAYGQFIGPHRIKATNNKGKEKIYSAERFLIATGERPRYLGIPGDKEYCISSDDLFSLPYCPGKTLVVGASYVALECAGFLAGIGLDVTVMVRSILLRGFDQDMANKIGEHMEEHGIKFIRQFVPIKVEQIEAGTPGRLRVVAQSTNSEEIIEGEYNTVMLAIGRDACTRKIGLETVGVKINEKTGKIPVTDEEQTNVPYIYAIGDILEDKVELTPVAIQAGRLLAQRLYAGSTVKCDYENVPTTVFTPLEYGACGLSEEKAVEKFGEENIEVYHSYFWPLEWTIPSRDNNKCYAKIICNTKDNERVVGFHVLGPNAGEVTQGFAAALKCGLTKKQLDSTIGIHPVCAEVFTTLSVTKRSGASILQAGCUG
Experimental: as §1

Vero cells = assay: Cytotoxicity in mammalian cells (Cell Titer Glo); assay type: cell-based; conditions: Vero cells
Experimental: Following overnight incubation, formulated DMSO-compound stock solutions were diluted with DMEM at <1% DMSO final concentrations. […] Vero cells treated similarly with different concentrations of PZQ, MZM and AF (Cayman Chemicals) were used as positive controls.

S. mansoni adult worms = assay: Schistosomicidal activity ex vivo, adult worms (Cell Titer Glo), alone or with channel blockers; assay type: cell-based
Experimental: Three-week old, female Swiss-Webster mice obtained from the Charles River were housed in the Comparative Research Center of Rush University Medical Center. Mice were infected by percutaneous tail exposure to about 200 S. mansoni or 50 S. japonicum cercaria for adult worms and about 1000 cercaria for juvenile S. mansoni worms through natural transdermal penetration of the cercariae for 1 h[81].
DMSO formulated compounds were diluted with phenol red free M199 medium or RPMI medium for NTS or juvenile and adult worms, respectively, at <1% DMSO final concentrations. NTS, juvenile and adult worms from overnight cultures were tested against compounds in triplicate. Controls were treated with DMSO alone or 5 µM AF as a positive control in appropriate medium. […] Schistosome viabilities in the presence of the compounds were assessed using this formula: % Viability = Averages of Test / Averages of DMSO Control x 100.

TGR = target: T3, TGR (Schistosoma mansoni, UniProt Q962Y6); assay: Thermal shift assay (TSA); assay type: binding; design: key to Avg. Tm / Tm, replicate 1-3: Tm in °C, from a 25–95 °C melt curve; conditions: for increase in the Tm of TGR in the presence of NADPH: 500 µM NADPH; for Avg. Tm / Tm, replicate 1-3: TGR + 100 µM compound; for Avg. Tm, + 500 µM NADPH / Tm, replicate 1-3, + 500 µM NADPH: TGR + 100 µM compound + 500 µM NADPH; for Tm, replicate 1-3, + 500 µM NADPH / Tm, replicate 1-3: single replicates; for effect on Tm of oxidized TGR: without NADPH
T3 construct: made in house
T3 sequence (Q962Y6 1-598): T1 sequence (Q962Y6 1-598)
Experimental: Samples were prepared by using a final concentration of 0.25 mg/ml TGR diluted in TGR reaction buffer to the desired volume. To evaluate reduced TGR, 500 µM NADPH was added. […] After the preincubation period, 20 µL samples were pipetted into a BioRad un-skirted PCR 96 well plate and sealed with MicroAmp^TM Optical Adhesive film. The plate was then centrifuged for 5 min at 1000 × g. TSA was carried out using a BioRad CFX Connect qPCR instrument with a melt curve setting of 25 − 95 °C, in increments of 0.5 °C/10 seconds. The SYBR green channel was used to detect fluorescence as the wavelength of flavin fluorescence overlaps with that of SYBR green. BioRad CFX Maestro 5.2 was used to analyze TSA data.

[1] = 15 minutes pre-incubation, compound 15 µM
[2] = 15 minutes pre-incubation, compound 30 µM
[3] = 15 minutes pre-incubation, compound 66.7 µM
[4] = 6 hours pre-incubation, compound 15 µM
[5] = 6 hours pre-incubation, compound 30 µM
[6] = 6 hours pre-incubation, compound 66.7 µM
[7] = 15 minutes pre-incubation, 15 µM
[8] = 15 minutes pre-incubation, 30 µM
[9] = 15 minutes pre-incubation, 66.7 µM
[10] = 6 hours pre-incubation, 66.7 µM

| Compound | % inhibition (S. mansoni TGR; [1]) [%] | % inhibition (S. mansoni TGR; [2]) [%] | % inhibition (S. mansoni TGR; [3]) [%] | % inhibition (S. mansoni TGR; [4]) [%] | % inhibition (S. mansoni TGR; [5]) [%] | % inhibition (S. mansoni TGR; [6]) [%] | % inhibition (Human TrxR1; compound 15 µM) [%] | % inhibition (Human TrxR1; compound 30 µM) [%] | % inhibition (Human TrxR1; compound 66.7 µM) [%] | % viability (Vero cells; Conc. 5 µM) [%] | % viability (Vero cells; Conc. 10 µM) [%] | % viability (Vero cells; Conc. 25 µM) [%] | % viability (Vero cells; Conc. 35 µM) [%] | % viability (Vero cells; Conc. 50 µM) [%] | S. mansoni TGR IC50 (S. mansoni TGR) | S. mansoni TGR inhibition (%) at 66.7 µM (S. mansoni TGR) | increase in the Tm of TGR in the presence of NADPH (TGR) | Avg. Tm (TGR) | Avg. Tm, + 500 µM NADPH (TGR) | Tm, replicate 1-3 (TGR; in °C (unit assumed)) | other results |
| --- | --- | --- | --- | --- | --- | --- | --- | --- | --- | --- | --- | --- | --- | --- | --- | --- | --- | --- | --- | --- | --- |
| Cc1oc(-c2ccccc2)nc1CN[C@@H]1C[C@@H]2C[C@H]([C@H]1C)C2(C)C [C3] | 3.671 | 7.41 | 17.804 | 23.6178 | 33.5098 | 42.7576 | 11.8305 | 16.5848 | 23.0303 | 99.3244 | 93.7147 | 77.3582 | 52.4878 | 28.6792 |  |  |  |  |  |  |  |
| Cc1oc(-c2ccc3ccccc3c2)nc1CNC1CCCCCC1 [C5] | 26.4295 | 32.2766 | 38.9031 | 38.3649 | 50.2366 | 73.0458 | 4.223 | 2.584 | 4.769 | 99.0699 | 99.036 | 93.1095 | 87.9829 | 82.6807 |  |  |  |  |  |  |  |
| C[C@@H]1[C@H]2C[C@@H](C[C@H]1NCc1nc3ccccc3n1C)C2(C)C [C12] |  |  |  |  |  |  |  |  |  |  |  |  |  |  |  |  |  |  |  |  | TGR % inhibition (S. mansoni TGR; [7]): 0.03253%; TGR % inhibition (S. mansoni TGR; [8]): 0.1888%; TGR % inhibition (S. mansoni TGR; [9]): 0.4169%; TGR % inhibition (S. mansoni TGR; 6 hours pre-incubation, 15 µM): 0.1402%; TGR % inhibition (S. mansoni TGR; 6 hours pre-incubation, 30 µM): 1.567%; TGR % inhibition (S. mansoni TGR; [10]): 2.052%; hsTrxR % inhibition (Human TrxR1; 15 µM): 0.08203%; hsTrxR % inhibition (Human TrxR1; 30 µM): 0.1317%; hsTrxR % inhibition (Human TrxR1; 66.7 µM): 0.4216% |
| C[C@@H]1[C@H]2C[C@@H](C[C@H]1NCc1cc(-c3ccccc3)[nH]n1)C2(C)C [Compound 11] |  |  |  |  |  |  |  |  |  |  |  |  |  |  | n.i.^e | n.i.^e | no effect | 73.5 | 63.67 | 73.5 | inhibition at 15 µM (S. mansoni TGR; [7]): -0.793%; inhibition at 30 µM (S. mansoni TGR; [8]): 0.411%; inhibition at 66.7 µM (S. mansoni TGR; [9]): 1.81%; inhibition at 15 µM (S. mansoni TGR; 6 hours pre-incubation, 15 µM): 0.749%; inhibition at 30 µM (S. mansoni TGR; 6 hours pre-incubation, 30 µM): 1.2%; inhibition at 66.7 µM (S. mansoni TGR; [10]): 5.65%; viability at 5 µM (S. mansoni adult worms; Schistosoma mansoni, S. mansoni adult worms, 5 µM, relative to Worm + RPMI control, read-out: % viability): 97.5%; viability at 15 µM (S. mansoni adult worms; Schistosoma mansoni, S. mansoni adult worms, 15 µM, relative to Worm + RPMI control, read-out: % viability): 93.7%; viability at 30 µM (S. mansoni adult worms; Schistosoma mansoni, S. mansoni adult worms, 30 µM, relative to Worm + RPMI control, read-out: % viability): 89.4%; viability at 50 µM (S. mansoni adult worms; Schistosoma mansoni, S. mansoni adult worms, 50 µM, relative to Worm + RPMI control, read-out: % viability): 88.5%; Tm, replicate 1-3, + 500 µM NADPH (TGR): 63.5 (2×) and 64; effect on Tm of oxidized TGR (TGR): no effect |
| C[C@@H]1[C@H]2C[C@@H](C[C@H]1NCc1nc3ccccc3n1C)C2(C)C [Compound 12] |  |  |  |  |  |  |  |  |  |  |  |  |  |  | n.i.^e | n.i.^e | no effect | 73.5 | 64 | 73.5 | LD50 ex vivo S. mansoni adult (S. mansoni adult worms; 24 h exposure, compound alone): >50^a µM; inhibition at 66.7 µM (Human TrxR1; 66.7 µM, 6 h preincubation, read-out: Human TrxR1 IC50 (µM) or inhibition (%) at 66.7 µM: inhibition): 28.6%; IC50 (Human TrxR1; 15 min preincubation (enzyme + 100 µM NADPH + compound), read-out: Human TrxR1 IC50): > 66.7 µM; Tm, replicate 1-3, + 500 µM NADPH (TGR; in °C (unit assumed)): 64; effect on Tm of oxidized TGR (TGR): no effect |
